Consider one molecule from article PMC11539218 (Antimicrobial Agents and Chemotherapy, 2024).

The test system of series [1] is L. (L.) infantum promastigotes. In words: Short-time incubation IC50 assay in promastigotes (MTT). The class given is cell-based, Leishmania (L.) infantum. Conditions: Leishmania infantum, promastigotes 2 × 10^6/well, 4 h of treatment, read-out: IC50 (50% inhibitory concentration), short-time incubation. Here is the method:
All experiments were performed with L. (L.) infantum promastigotes in the late-grown phase using a Hanks-Balanced Salt Solution medium supplemented with D-glucose (10 mM), exceptions were described. To establish the ideal time and concentration to investigate the mechanism of action (MoA), a new IC50 assay was performed in promastigotes in short-time incubation. Parasites (2 × 10^6/well) were treated with compound 1 serially diluted (1.6 to 300 µM) for 1, 2, 3, and 4 h, at 24°C. Parasite viability was determined using the MTT colorimetric method ([16]). Untreated cells were employed as a negative control.

Series [2] deals with L. (L.) infantum promastigotes. In words: Plasma membrane permeability (Sytox Green). The class given is cell-based, Leishmania (L.) infantum. Conditions: compound 1 169.2 µM, Triton X-100 0.5%, up to 4 h. Here is the method:
Promastigotes (2 × 10^6/well) were pretreated with Sytox Green (1 µM) for 15 min, at 24°C. Then, compound 1 (169.2 µM) was added and the fluorescence was monitored every 20 min up to 4 h in a spectrofluorometer, with excitation and emission wavelengths of 485 and 535 nm, respectively ([17]). Triton X-100 (0.5% vol/vol) was employed as positive control and untreated parasites as negative control ([18]).

In series [3] the test system is L. (L.) infantum promastigotes. It counts as cell-based, Leishmania (L.) infantum. Conditions: compound 1 169.2 µM, sodium azide 10 mM; 2 and 4 h; H2DCFDA; vs untreated. Here is the method:
Promastigotes (2 × 10^6/well) were treated with compound 1 (169.2 µM) for 2 and 4 h, at 24°C. Later, H2DCFDA (5 µM) was added and the parasites were incubated for 15 min. Fluorescence was monitored in a spectrofluorometer with excitation and emission wavelengths of 485 and 535 nm, respectively ([19]). Sodium azide (10 mM) was employed as positive control and untreated parasites as negative control.

The test system of series [4] is L. (L.) infantum promastigotes. In words: Cell cycle (propidium iodide, flow cytometry). It counts as cell-based, Leishmania (L.) infantum. Particulars: 24 h; compound 1 169.2 µM, miltefosine 25 µM. As to the method:
Promastigotes (2 × 10^6/well) in exponential phase, were treated with compound 1 (169.2 µM) in M199 medium supplemented with 10% FBS and 0.25% hemin, pH 7.2, for 24 h at 24°C. In sequence, 70% (vol/vol) ice-cold ethanol was used for cell permeabilization overnight at −20°C. Then, the parasites were incubated with propidium iodide (10 µg/mL) and RNase A (20 µg/mL) for 30 min. […] Miltefosine (25 µM) was employed as positive control and untreated parasites as negative control ([25]).
A general note: In flow cytometry, cells or beads pass a laser one at a time.

The subject of series [5] is L. (L.) infantum promastigotes. In words: Ultrastructural studies (transmission electron microscopy). Conditions: 169.2 µM, TEM. The class given is cell-based, Leishmania (L.) infantum. As to the method:
Promastigotes (3 × 10^7 parasites/well) were treated with compound 1 (169.2 µM) for 2, 4, and 6 h at 24°C. Subsequently, parasites were fixed in glutaraldehyde solution (2.5% wt/vol) and post-fixed in osmium tetroxide (1% wt/vol). The samples were gradually dehydrated in acetone and embedded in Epon 812 resin. Ultrathin sections were stained with uranyl acetate and lead citrate ([27]). The material was analyzed under a transmission electron microscope (JEOL JEM-1011). Untreated parasites were employed as a negative control.

Series [6] deals with Peritoneal macrophages infected with L. (L.) infantum amastigotes. In words: Nitric oxide in infected macrophages (Griess reagent). The class given is cell-based, BALB/c mice. Conditions: compound 1 7.5 to 60 µM, LPS 25 µg/mL; 48 h; vs untreated. Here is the method:
L. (L.) infantum (MHOM/BR/1972/LD) promastigotes were maintained in M199 medium supplemented with 10% FBS and 0.25% hemin, pH 7.2 at 24°C. Amastigotes were isolated from golden hamsters (M. auratus) by differential centrifugation of infected spleens and the parasite’s number was determined according to Stauber ([14]). Peritoneal macrophages were obtained from the peritoneal cavity of BALB/c mice and maintained in RPMI-1640 medium supplemented with 10% FBS, pH 7.2 at 37°C.
Peritoneal macrophages (5 × 10^5/well) were infected with L. (L.) infantum amastigotes (10:1 amastigotes/macrophage) for 24 h, at 37°C with 5% CO2. Later, the cells were treated with compound 1 serially diluted (7.5 to 60 µM), under the same conditions described above. After 48 h, the supernatants were collected and incubated with Griess reagent ([28]). […] LPS (25 µg/mL) was employed as the positive control and untreated cells as the negative control ([29]).
A general note: Nitrite, measured by Griess reagent, commonly stands in for NO production.

Turning to `C=CCc1cc(OC)c(OCc2ccc(OC)cc2)c(Oc2ccc(CN3CCOCC3)cc2OC)c1` [compound 1, 4-(4-(5-allyl-3-methoxy-2-((4-methoxybenzyl)oxy)phenoxy)-3-methoxybenzyl)morpholine], the IC50 in series [1] turned out to be 169 µM. The plasma membrane permeability entry in series [2] was “no alteration”. Besides, the ROS levels result in series [3] is reported as “significant reduction”. Moreover, in series [4], the “Proportion of parasites in different phases of the cell cycle (% ± SD): G0/G1” value is listed as 46.6 ± 0.7 %, the “Proportion of parasites in different phases of the cell cycle (% ± SD): M/G2” value turned out to be 17.9 ± 0.5%, the “Proportion of parasites in different phases of the cell cycle (% ± SD): S” value came to 11.1 ± 1.3% and the “Proportion of parasites in different phases of the cell cycle (% ± SD): Sub G0” value is listed as 7.5 ± 0.7 %. In addition, the ultrastructural alterations result in series [5] (2 h) is “increased volume of the mitochondria”. For the same molecule, the ultrastructural alterations result in series [5] (all studied times (2, 4, 6 h)) is recorded as “autophagic vacuoles were observed in the cytoplasm”. The ultrastructural alterations entry in series [5] (later times of incubation (4 h, 6 h)) was “losses of mitochondrial cristae”. Further, the NO levels result in series [6] was “remained similar”.
